Measurements from US12103924B2, “Mitogen-activated protein kinase kinase (MEK) degradation compounds and methods of use” (Icahn School of Medicine at Mount Sinai, priority 2020, dated 2024).

Assays:
HT-29 cells = test: WST-8 cell viability assay, HT-29; type: cell-based
Description: (§1) Cells were fixed and stained by crystal violet.
(§2) Cells (2000 cells per well) were seeded into 96-well microplates. After 20 h, cells were treated with 0.1% DMSO or indicated serial dilutions of compounds in duplicate or triplicate for 3 days. Cell viability was tested using MTT (M6494, Thermo Fisher Scientific) or WST-8 reagent (CK04, Dojindo). Briefly, 12 mM MTT was prepared in PBS or WST-8 reagent was warmed up to room temperature. 20 μL MTT or CCK-8 was then added to each well and the plates were kept in incubator at 37° C. for 3 h in the dark. For the WST-8 assay, signal was obtained after the incubation. For the MTT assay, cell medium was replaced with 200 μL of DMSO after the incubation, and then cell plates were kept at 37° C. for another 30 min. Absorbance signals for MTT and WST-8 were read at 540 nm and 450 nm respectively, with 690 nm as reference performed with Infinite F PLEX plate reader (TECAN, Morrisville, NC, USA). GI50 values were analyzed using GraphPad Prism 8 from the data of at least three independent experiments.

SK-MEL-28 cells = test: WST-8 cell viability assay, SK-MEL-28; type: cell-based
Description: as §1, §2

H3122 cells = test: WST-8 cell viability assay, H3122; type: cell-based; conditions: WST-8, 3 d
Description: as §2

SUDHL1 cells = test: WST-8 cell viability assay, SUDHL1; type: cell-based; conditions: WST-8, 3 d
Description: as §2

MEK1/2 [1] = test: Western blot of MEK1/2 protein levels in HT-29 cells; type: cell-based; conditions: HT-29 cells
Description: Compound concentrations are 0.3 μM, 1 μM and 3 μM.
(§3) The indicated protein levels were determined by Western blots.
(§4) The sample was centrifuged at 12,000 g for 10 min at 4° C. to get supernatant as cell lysate. Protein concentrations were quantified using Pierce rapid gold BCA protein assay kit.

pMEK and pERK [2] = test: Western blot of MEK and ERK phosphorylation in HT-29 cells; type: cell-based; conditions: HT-29 cells
MEK1/2 [3] = test: Western blot of MEK1/2 protein levels in SK-MEL-28 cells; conditions: SK-MEL-28 cells
Description: as §3, §4

pMEK and pERK [4] = test: Western blot of MEK and ERK phosphorylation in SK-MEL-28 cells; conditions: SK-MEL-28 cells
[5] = 0.1 μM or 0.3 μM, harvested at indicated time points
[6] = serial dilution, 24 h, western blot

Cc1ncsc1-c1ccc([C@H](C)NC(=O)[C@@H]2C[C@@H](O)CN2C(=O)[C@@H](NC(=O)CCCCCCCCCCN(C)CCCONC(=O)c2ccc(F)c(F)c2Nc2ccc(I)cc2F)C(C)(C)C)cc1 [CPD-037, (2S,4R)-1-((S)-20-(tert-butyl)-1-(3,4-difluoro-2-((2-fluoro-4-iodophenyl)amino)phenyl)-7-methyl-1,18-dioxo-3-oxa-2,7,19-triazahenicosan-21-oyl)-4-hydroxy-N—((S)-1-(4-(4-methylthiazol-5-yl)phenyl)ethyl)pyrrolidine-2-carboxamide]
growth of cells (HT-29 cells; WST-8 3 d serial dilutions, clonogenic assay 10 d): significantly suppressed | growth inhibition compared with AZ compound (HT-29 cells; WST-8, 3 d): more potent | growth of cells (SK-MEL-28 cells; WST-8 3 d serial dilutions): significantly suppressed | growth inhibition compared with AZ compound (SK-MEL-28 cells; WST-8, 3 d): more potent | growth inhibition compared with AZ compound (H3122 cells): more potent | growth inhibition compared with AZ compound (SUDHL1 cells): more potent | MEK1 and MEK2 protein levels, time-dependent (MEK1/2 [1]; [5]): degrade | MEK1 and MEK2 protein levels, concentration-dependent (MEK1/2 [1]; [6]): degrade | phosphorylation of MEK and ERK / pERK signaling, time-dependent (pMEK and pERK [2]; [5]): inhibit | phosphorylation of MEK and ERK proteins, concentration-dependent (pMEK and pERK [2]; [6]): inhibit | MEK1 and MEK2 protein levels, time-dependent (MEK1/2 [3]; [5]): degrade | MEK1 and MEK2 protein levels, concentration-dependent (MEK1/2 [3]; [6]): degrade | phosphorylation of MEK and ERK / pERK signaling, time-dependent (pMEK and pERK [4]; [5]): inhibit | phosphorylation of MEK and ERK proteins, concentration-dependent (pMEK and pERK [4]; [6]): inhibit
